Data taken from ChEMBL document CHEMBL2150849, “Sesquiterpenoids from the mangrove-derived endophytic fungus Diaporthe sp” (J Nat Prod, 2012).
Calls of active or inactive are those of the source.

Tests used:
Assay type in all cases: functional, cell-based
SGC-7901 = experiment: Cytotoxicity against human SGC7901 cells at 20 uM by MTT assay
MCF7 = experiment: Cytotoxicity against human MCF7 cells at 20 uM by MTT assay
A549 = experiment: Cytotoxicity against human A549 cells at 20 uM by MTT assay
QGY7701 = experiment: Cytotoxicity against human QGY7701 cells at 20 uM by MTT assay

Measured: Activity

CC1=C[C@@H]2C[C@H](C)C[C@H](C)[C@H]2[C@](C)(C(=O)CCO)[C@@H]1C(=O)O
inactive: SGC-7901 | MCF7 | A549 | QGY7701

CC1=C(CO)[C@@]2(C)C[C@@H](O)CC(C)(C)[C@@H]2CC1=O
inactive: SGC-7901 | MCF7 | A549 | QGY7701

CC1(C)C(=O)CC[C@]2(C)[C@@H](CO)[C@](C)(O)CC[C@@]12O
inactive: SGC-7901 | MCF7 | A549 | QGY7701

CC1(C)CCC[C@]2(C)[C@@H](C(=O)O)[C@](C)(O)CC[C@@H]12
inactive: SGC-7901 | MCF7 | A549 | QGY7701

CC1=C(CO)[C@@]2(C)CC[C@H](O)C(C)(C)[C@@H]2CC1=O
inactive: SGC-7901 | MCF7 | A549 | QGY7701

CC1(C)CC(=O)C[C@]2(C)[C@@H](CO)[C@](C)(O)CC[C@@H]12
inactive: SGC-7901 | MCF7 | A549 | QGY7701

CC1=C(CO)[C@@]2(C)CCCC(C)(C)[C@@H]2C[C@H]1O
inactive: SGC-7901 | MCF7 | A549 | QGY7701

CC1=C(CO)[C@@]2(C)CCC[C@@](C)(CO)[C@@H]2CC1=O
inactive: SGC-7901 | MCF7 | A549 | QGY7701

CC(C)(O)[C@]12CCC3=C(COC3=O)[C@@]1(C)CCC(=O)O2
inactive: SGC-7901 | MCF7 | A549 | QGY7701

CC1(C)[C@@H](O)CC[C@]2(C)C3=C(CC[C@@H]12)C(=O)OC3
inactive: SGC-7901 | MCF7 | A549 | QGY7701

C[C@]1(CO)CCC[C@]2(C)[C@@H](CO)[C@](C)(O)CC[C@@H]12
inactive: SGC-7901 | MCF7 | A549 | QGY7701
